Reference: ChEMBL document CHEMBL4715772, “A facile stereoselective synthesis of dispiro-indeno pyrrolidine/pyrrolothiazole-thiochroman hybrids and evaluation of their antimycobacterial, anticancer and AchE inhibitory activities” (Bioorg Med Chem, 2016)
Converted amounts (≈) assume the structure as drawn. The source made the active and inactive calls. The rule behind the calls is not given here.

Assays:
[1] = test system: Mycobacterium tuberculosis; test: Antimycobacterial activity against Mycobacterium tuberculosis H37Rv assessed as inhibition of bacterial growth by microdilution alamar blue broth assay; format: functional, organism-based
[2] = Cytotoxicity against African green monkey Vero cells assessed as cell viability after 72 hrs by MTT assay; format: cell-based; settings: chlorocebus sabaeus, read-out: MNCC
[3] = test system: Mycobacterium tuberculosis; test: Antimycobacterial activity against Mycobacterium tuberculosis H37Rv assessed as inhibition of bacterial growth at 3.198 mM by microdilution alamar blue broth assay; format: functional, organism-based
[4] = test system: Mycobacterium tuberculosis; test: Antimycobacterial activity against Mycobacterium tuberculosis H37Rv assessed as inhibition of bacterial growth at 0.17 mM by microdilution alamar blue broth assay relative to control; format: functional

NCC[C@H](O)C(=O)N[C@@H]1C[C@H](N)[C@@H](O[C@H]2O[C@H](CN)[C@@H](O)[C@H](O)[C@H]2O)[C@H](O)[C@H]1O[C@H]1O[C@H](CO)[C@@H](O)[C@H](N)[C@H]1O [AMIKACIN]
IC90 [1]: 80 nM
MIC [1]: 0.16 µM (≈ 0.0937 µg/mL)
MNTC at 72 h [2]: > 6.25 µg/mL
Activity [3]: Active
inhibition at 170 µM [4]: 30%
